Values joined by “and” are separate entries in the source; they are usually repeats but may differ in a detail not shown here. Equal values may be shown once.
Assays:
[1] = tested on: influenza A/H1N1pdm09, A/H3N2, and B viruses; experiment: Fever duration after NAI treatment in outpatients with laboratory confirmed influenza (observational study); type: in vivo, human; conditions: for HR (Cox proportional hazards model of fever duration): multivariable analysis, compared to oseltamivir (reference 1.00); for Mean fever duration after NAI treatment: univariate analysis, all patients aged <20 years, all types/subtypes, from start of treatment to <37.5 °C
[2] = tested on: oseltamivir-sensitive influenza A/H1N1pdm09 virus; type: in vivo; conditions: oseltamivir-treated patients 0–5 years, oseltamivir-sensitive viruses, n = 111
[3] = tested on: influenza B; conditions: patients aged 5 to 18 years, cited from earlier work

Molecule | Average fever duration ([1]; age group 0 to 5 years) [h] | Average fever duration ([1]; age group 6 to 9 years) [h] | Average fever duration ([1]; age group 10 to 19 years) [h] | HR (Cox proportional hazards model of fever duration) [1] | Mean fever duration after NAI treatment [1] [h] | Average fever duration [2] | Median fever duration longer than for peramivir ([3]; P <0.01) [days] | Median fever duration after treatment [3] [days]
CC(=O)N[C@H]1[C@H]([C@H](O)[C@H](O)CO)OC(C(=O)O)=C[C@@H]1N=C(N)N [Zanamivir, zanamivir] | 45.4 | 42.3 | 35.4 | 0.87 | 38.5 | – | – | –
CCOC(=O)C1=C[C@@H](OC(CC)CC)[C@H](NC(C)=O)[C@@H](N)C1 [Oseltamivir, oseltamivir] | 42.2 | 37.3 | 29.8 | 1.00 | 40.1 | 40 h and 40 ± 27 h | – | –
[H]/N=C(\N)N[C@H]1C=C(C(=O)O)O[C@@H]([C@H](OC)[C@H](O)CO)[C@@H]1NC(C)=O [Laninamivir, laninamivir] | 75.8 | 42.9 | 36.6 | 0.78 | 39.8 | – | 1 | 3
peramivir | 46.3 | 31.3 | 32.3 | 1.05 | 38.3 | – | – | –

From paper PMC6837752, “Effectiveness of four types of neuraminidase inhibitors approved in Japan for the treatment of influenza” (PLoS ONE, 2019)
